From patent US20240415837A1, “PHARMACOLOGIC MODULATION OF 5-FLUOROURACIL BY FOLINIC ACID AND VITAMIN B6 FOR THE TREATMENT OF PATIENTS WITH CARCINOMA” (priority 2021, published 2024)
Like-named read-outs stand apart in the source and are kept apart here. One block for each compound: values may come before it.

Legend:
[1] = target: serine hydroxymethyl transferase (SHMT) apoenzyme; settings: cited from earlier work
[2] = Erythrocyte pharmacokinetics of vitamin B6 after intraperitoneal high-dose pyridoxine or pyridoxamine in mice; settings: erythrocytes, 450 mg/kg intraperitoneal
[3] = target: T1, pyridoxine (pyridoxamine) 5′-phosphate oxidase (PNPOx) (Homo sapiens, UniProt Q9NVS9); settings: read-out: Km of PNPOx; cited from earlier work
T1 sequence (Q9NVS9 1-261): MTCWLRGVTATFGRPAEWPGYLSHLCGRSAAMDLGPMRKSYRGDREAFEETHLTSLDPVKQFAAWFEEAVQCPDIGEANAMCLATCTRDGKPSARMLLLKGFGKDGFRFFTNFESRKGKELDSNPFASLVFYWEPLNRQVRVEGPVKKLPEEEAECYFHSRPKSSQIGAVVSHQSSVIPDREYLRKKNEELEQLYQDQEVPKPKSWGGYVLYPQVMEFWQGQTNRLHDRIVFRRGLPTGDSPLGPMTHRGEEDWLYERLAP

[4] = cited from earlier work
[5] = Pilot study in patients with advanced breast carcinoma: assessment of toxicity; settings: human, in vivo
Excerpt: Doxorubicin comprised in FAC and AVCF regimens was suspended in case of ≥10% decrease in left ventricular ejection fraction from baseline value. […] Vinorelbine-containing chemotherapy (i.e., VCbF) was indicated instead of TCbF for patients who had severe hematopoietic impairment or prior taxane-induced toxicity and was used in substitution for TCbF in cases of paclitaxel-induced SPN occurring in patients throughout the study.
Patients with paclitaxel induced neuropathy, whose chemotherapy was either interrupted or pursued with VCbF had further progressive decrease of neurologic symptoms, and then disappearance occurring in most patients during follow-up. […] Except for interruption of paclitaxel as described above, no dose reductions of any cytostatic agent or increasing intervals between courses due to unusual or unexpectedly excessive hematologic and/or visceral toxicity were required. The single case of acute myelogenous leukemia carrying the 17q-chromosome aberration marker occurred 18 months after cessation of induction treatment in one patient who had prior genotoxic cytostatics and radiotherapy.

Compound: Cc1ncc(COP(=O)(O)O)c(C=O)c1O [PLP, pyridoxal 5′-phosphate]
- Kd ([1]; read-out: Kd of SHMT binding to cofactor, lower end of reported range): ≥ 0.25 µM
- Kd ([1]; read-out: Kd of SHMT binding to cofactor, upper end of reported range): ≤ 27 µM

- AUC 12 h of B6 vitamer: PLP [2]: 14,988 nmol/L cells · 12 h
- AUC 12 h of B6 vitamer: PMP [2]: 19,356 nmol/L cells · 12 h
Compound: Cc1ncc(CO)c(CN)c1O [PM, pyridoxamine]

Compound: Cc1ncc(COP(=O)(O)O)c(CN)c1O [PMP, pyridoxamine 5′-phosphate]
- Km [3]: 1 µM

- AUC 12 h of B6 vitamer: PLP [2]: 2,231 nmol/L cells · 12 h
- AUC 12 h of B6 vitamer: PMP [2]: 11,597 nmol/L cells · 12 h
Compound: Cc1ncc(CO)c(CO)c1O [PN, pyridoxine]
- toxicity in man ([4]; extremely high doses for long periods of time): sensory peripheral neuropathy
- safety in man ([4]; high doses used for treatment of various conditions): safe
- sensory peripheral neuropathy with high cumulative doses of pyridoxine, versus that expected with paclitaxel in TCbF [5]: not accompanied with greater incidence, or higher grades, of sensory peripheral neuropathy
